According to patent publication US8134015B2, “Compound inhibiting in vivo phosphorous transport and medicine containing the same” (Kyowa Hakko Kirin Co., Ltd., priority 2003, dated 2012):
pIC50: −log10 of the molar value.

Each compound was assayed against T1, rat NaPi-2b (Rattus norvegicus, UniProt Q9JJ09) (assay: Sodium-dependent phosphate uptake of Xenopus oocytes which expressed NaPi-2b (32P)). Settings: Xenopus oocytes expressing rat NaPi-2b, 32P radioactive phosphorus; read-out: IC50 (phosphate uptake inhibitory activity).
T1 construct: expressed in transfected cells; host or cells: Xenopus oocytes injected with cRNA
T1 sequence (Q9JJ09 1-695): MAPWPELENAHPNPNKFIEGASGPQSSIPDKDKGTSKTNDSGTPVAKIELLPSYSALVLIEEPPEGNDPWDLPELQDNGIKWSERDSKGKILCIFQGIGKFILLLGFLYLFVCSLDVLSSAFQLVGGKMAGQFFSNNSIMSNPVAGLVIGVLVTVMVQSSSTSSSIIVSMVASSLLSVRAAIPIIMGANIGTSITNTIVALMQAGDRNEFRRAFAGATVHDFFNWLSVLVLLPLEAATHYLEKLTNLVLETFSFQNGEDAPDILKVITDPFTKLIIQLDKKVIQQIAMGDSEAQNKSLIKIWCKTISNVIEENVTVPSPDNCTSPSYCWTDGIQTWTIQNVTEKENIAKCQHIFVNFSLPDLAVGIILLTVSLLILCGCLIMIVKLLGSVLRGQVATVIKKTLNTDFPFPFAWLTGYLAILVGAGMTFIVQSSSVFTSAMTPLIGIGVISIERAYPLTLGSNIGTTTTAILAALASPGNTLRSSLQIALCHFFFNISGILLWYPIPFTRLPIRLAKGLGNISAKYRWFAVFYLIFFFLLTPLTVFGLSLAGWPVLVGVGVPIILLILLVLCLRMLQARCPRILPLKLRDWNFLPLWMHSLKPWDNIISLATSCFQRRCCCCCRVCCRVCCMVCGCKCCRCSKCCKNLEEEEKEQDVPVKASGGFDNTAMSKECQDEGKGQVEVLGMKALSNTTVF
Format: cell-based
How it was run: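 Rat NaPi-2b cloned from small-intestine cDNA; cRNA injected into Xenopus oocytes, expression for 2 days. Phosphate uptake inhibition measured with 32P; percent inhibition at 300 μM and 100 μM read from the same inhibition curve.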

pIC50 | SMILES
> 5.52 | O=C(Nc1ccc(I)cc1C(=O)N/N=C/c1cccc(F)c1)c1cccc(CN2CCC(N3CCCCC3)CC2)c1 [Compound 482, 3-[1,4′]Bipiperidinyl-1′-ylmethyl-N-[2-(3-fluoro-benzylidene-hydrazinocarbonyl)-4-iodo-phenyl]-benzamide]
> 5.52 | Cc1ccc(/C=N/NC(=O)c2cc(I)ccc2NC(=O)c2cccc(CN3CCC(N4CCCCC4)CC3)c2)cc1 [Compound 485, 3-[1,4′]Bipiperidinyl-1′-ylmethyl-N-[4-iodo-2-(4-methyl-benzylidene-hydrazinocarbonyl)-phenyl]-benzamide]
> 5.52 | COc1cccc(/C=N/NC(=O)c2cc(I)ccc2NC(=O)c2cccc(CN3CCC(N4CCCCC4)CC3)c2)c1 [Compound 488, 3-[1,4′]Bipiperidinyl-1′-ylmethyl-N-[4-iodo-2-(3-methoxy-benzylidene-hydrazinocarbonyl)-phenyl]-benzamide]
> 5.52 | COc1ccc(/C=N/NC(=O)c2cc(I)ccc2NC(=O)c2cccc(CN3CCC(N4CCCCC4)CC3)c2)cc1 [Compound 489, 3-[1,4′]Bipiperidinyl-1′-ylmethyl-N-[4-iodo-2-(4-methoxy-benzylidene-hydrazinocarbonyl)-phenyl]-benzamide]
> 5.52 | O=C(Nc1ccc(I)cc1C(=O)N/N=C/c1cccc(O)c1)c1cccc(CN2CCC(N3CCCCC3)CC2)c1 [Compound 490, 3-[1,4′]Bipiperidinyl-1′-ylmethyl-N-[2-(3-hydroxy-benzylidene-hydrazinocarbonyl)-4-iodo-phenyl]-benzamide]
> 5.52 | O=C(Nc1ccc(I)cc1C(=O)N/N=C/c1ccc(O)cc1)c1cccc(CN2CCC(N3CCCCC3)CC2)c1 [Compound 491, 3-[1,4′]Bipiperidinyl-1′-ylmethyl-N-[2-(4-hydroxy-benzylidene-hydrazinocarbonyl)-4-iodo-phenyl]-benzamide]
5.68 | Cc1ccc(/C=N/NC(=O)c2cc(Br)ccc2NC(=O)c2ccc(C)cc2)cc1 [Compound 494, N-[4-Bromo-2-(4-methyl-benzylidene-hydrazinocarbonyl)-phenyl]-4-methyl-benzamide]
6.46 | O=C(Nc1ccc(Br)cc1C(=O)N/N=C/c1cccc(F)c1)c1ccccn1 [Compound 495, Pyridin-2-carboxylic acid[4-bromo-2-(3-fluoro-benzylidene-hydrazinocarbonyl)-phenyl]-amide]
6.22 | Cc1ccc(/C=N/NC(=O)c2cc(Br)ccc2NC(=O)c2ccccn2)cc1 [Compound 498, Pyridin-2-carboxylic acid [4-bromo-2-(4-methyl-benzylidene-hydrazinocarbonyl)-phenyl]-amide]
4.64 | CCOc1ccc(C(=O)Nc2ccc(Br)cc2C(=O)N/N=C/c2cccc(F)c2)cc1 [Compound 501, N-[4-Bromo-2-(3-fluoro-benzylidene-hydrazinocarbonyl)-phenyl]-4-ethoxy-benzamide]
4.80 | CCOc1ccc(C(=O)Nc2ccc(Br)cc2C(=O)N/N=C/c2ccc(F)cc2)cc1 [Compound 502, N-[4-Bromo-2-(4-fluoro-benzylidene-hydrazinocarbonyl)-phenyl]-4-ethoxy-benzamide]
4.72 | CCOc1ccc(C(=O)Nc2ccc(Br)cc2C(=O)N/N=C/c2ccc(C)c(C)c2)cc1 [Compound 504, N-[4-Bromo-2-(3,4-dimethyl-benzylidene-hydrazinocarbonyl)-phenyl]-4-ethoxy-benzamide]
4.71 | O=C(Nc1ccccc1C(=O)N/N=C/c1ccc(F)cc1)c1ccccn1 [Compound 506, Pyridin-2-carboxylic acid [2-(4-fluoro-benzylidene-hydrazinocarbonyl)-phenyl]-amide]
5.73 | Cc1ccc(/C=N/NC(=O)c2ccccc2NC(=O)c2ccccn2)cc1C [Compound 507, Pyridin-2-carboxylic acid [2-(3,4-dimethyl-benzylidene-hydrazinocarbonyl)-phenyl]-amide]
5.83 | O=C(Nc1ccc(Br)cc1C(=O)N/N=C/c1cccc(F)c1)c1ccno1 [Compound 510, Isoxazole-5-carboxylic acid [4-bromo-2-(3-fluoro-benzylidene-hydrazinocarbonyl)-phenyl]-amide]

The next lines start with the compound.

SMILES | pIC50
O=C(Nc1ccc(I)cc1C(=O)N/N=C/c1ccc(F)cc1)c1cccc(CN2CCC(N3CCCCC3)CC2)c1 [Compound 483, 3-[1,4′]Bipiperidinyl-1′-ylmethyl-N-[2-(4-fluoro-benzylidene-hydrazinocarbonyl)-4-iodo-phenyl]-benzamide] | > 5.52
Cc1cccc(/C=N/NC(=O)c2cc(I)ccc2NC(=O)c2cccc(CN3CCC(N4CCCCC4)CC3)c2)c1 [Compound 484, 3-[1,4′]Bipiperidinyl-1′-ylmethyl-N-[4-iodo-2-(3-methyl-benzylidene-hydrazinocarbonyl)-phenyl]-benzamide] | > 5.52
Cc1ccc(/C=N/NC(=O)c2cc(I)ccc2NC(=O)c2cccc(CN3CCC(N4CCCCC4)CC3)c2)cc1C [Compound 486, 3-[1,4′]Bipiperidinyl-1′-ylmethyl-N-[2-(3,4-dimethyl-benzylidene-hydrazinocarbonyl)-4-iodo-phenyl]-benzamide] | > 5.52
O=C(Nc1ccc(I)cc1C(=O)N/N=C/c1ccc(Cl)c(C(F)(F)F)c1)c1cccc(CN2CCC(N3CCCCC3)CC2)c1 [Compound 487, 3-[1,4′]Bipiperidinyl-1′-ylmethyl-N-[2-(4-chloro-3-trifluoromethyl-benzylidene-hydrazinocarbonyl)-4-iodo-phenyl]-benzamide] | > 5.52
Cc1ccc(CNNC(=O)c2cc(Cl)ccc2NC(=O)c2cccc(CSCCO)c2)cc1C [Compound 492, N-{4-Chloro-2-[N′-(3,4-dimethyl-benzyl)-hydrazinocarbonyl]-phenyl}-3-(2-hydroxy-ethylsulfanylmethyl)-benzamide] | > 5.52
Cc1ccc(C=NNC(=O)c2cc(Cl)ccc2NC(=O)c2cccc(CS(=O)(=O)CCO)c2)cc1C [Compound 493, N-[4-Chloro-2-(3,4-dimethyl-benzylidene-hydrazinocarbonyl)-phenyl]-3-(2-hydroxy-ethanesulfonylmethyl)-benzamide] | > 5.52
O=C(Nc1ccc(Br)cc1C(=O)N/N=C/c1ccc(F)cc1)c1ccccn1 [Compound 496, Pyridin-2-carboxylic acid [4-bromo-2-(4-fluoro-benzylidene-hydrazinocarbonyl)-phenyl]-amide] | 6.19
Cc1cccc(/C=N/NC(=O)c2cc(Br)ccc2NC(=O)c2ccccn2)c1 [Compound 497, Pyridin-2-carboxylic acid [4-bromo-2-(3-methyl-benzylidene-hydrazinocarbonyl)-phenyl]-amide] | 6.29
Cc1ccc(/C=N/NC(=O)c2cc(Br)ccc2NC(=O)c2ccccn2)cc1C [Compound 499, Pyridin-2-carboxylic acid [4-bromo-2-(3,4-dimethyl-benzylidene-hydrazinocarbonyl)-phenyl]-amide] | 6.01
O=C(Nc1ccc(Br)cc1C(=O)N/N=C/c1ccc(Cl)c(C(F)(F)F)c1)c1ccccn1 [Compound 500, Pyridin-2-carboxylic acid [4-bromo-2-(4-chloro-3-trifluoromethyl-benzylidene-hydrazinocarbonyl)-phenyl]-amide] | 6.46
CCOc1ccc(C(=O)Nc2ccc(Br)cc2C(=O)N/N=C/c2ccc(C)cc2)cc1 [Compound 503, N-[4-Bromo-2-(4-methyl-benzylidene-hydrazinocarbonyl)-phenyl]-4-ethoxy-benzamide] | 4.99
O=C(Nc1ccccc1C(=O)N/N=C/c1cccc(F)c1)c1ccccn1 [Compound 505, Pyridin-2-carboxylic acid [2-(3-fluoro-benzylidene-hydrazinocarbonyl)-phenyl]-amide] | 5.92
O=C(Nc1ccccc1C(=O)N/N=C/c1ccc(Cl)c(C(F)(F)F)c1)c1ccccn1 [Compound 508, Pyridin-2-carboxylic acid [2-(4-chloro-3-trifluoromethyl-benzylidene-hydrazinocarbonyl)-phenyl]-amide] | 6.32
O=C(N/N=C/c1cccc(F)c1)c1cc(Br)ccc1NC(=O)C1CCCCC1 [Compound 509, Cyclohexanecarboxylic acid [4-bromo-2-(3-fluoro-benzylidene-hydrazinocarbonyl)-phenyl]-amide] | 4.87
Cc1cccc(/C=N/NC(=O)c2cc(Br)ccc2NC(=O)c2ccno2)c1 [Compound 511, Isoxazole-5-carboxylic acid [4-bromo-2-(3-methyl-benzylidene-hydrazinocarbonyl)-phenyl]-amide] | 5.67
Cc1ccc(/C=N/NC(=O)c2cc(Br)ccc2NC(=O)c2ccno2)cc1C [Compound 512, Isoxazole-5-carboxylic acid [4-bromo-2-(3,4-dimethyl-benzylidene-hydrazinocarbonyl)-phenyl]-amide] | 4.55
O=C(Nc1ccc(Br)cc1C(=O)N/N=C/c1ccc(Cl)c(C(F)(F)F)c1)c1ccno1 [Compound 513, Isoxazole-5-carboxylic acid [4-bromo-2-(4-chloro-3-trifluoromethyl-benzylidene-hydrazinocarbonyl)-phenyl]-amide] | 4.80
